# Marks after values point to notes of the source that are not given here.
# Target: recombinant human S1P1 receptor (Homo sapiens, UniProt P21453)
# Assay: GTPγS assay to determine EC50 values
# Type: biochemical
# Conditions: 35S-GTPγS binding, membrane preparations of CHO cells expressing recombinant human S1P1 receptor, agonistic activity
# Experimental: GTPγS binding assays are performed in 96 well microtiter plates (Nunc, 442587) in a final volume of 200 μl, using membrane preparations of CHO cells expressing recombinant human S1P1 receptor. Assay conditions are 20 mM Hepes (Fluka, 54461), 100 mM NaCl (Fluka, 71378), 5 mM MgCl2 (Fluka, 63064), 0.1% BSA (Calbiochem, 126609), 1 μM GDP (Sigma, G-7127), 2.5% DMSO (Fluka, 41644), […] ^35S-GTPγS (Amersham Biosciences, SJ1320). The pH is 7.4. Test compounds are dissolved and diluted in 100% DMSO and pre-incubated at room temperature for 30 min in 150 μl of the above assay buffer, in the absence of ^35S-GTPγS. After addition of 50 μl of ^35S-GTPγS, the assay is incubated for 1 h at rt. The assay is terminated by transfer of the reaction mixture to a Multiscreen plate (Millipore, MAHFC1H60) using a cell harvester from Packard Biosciences, and the plates are washed with ice-cold 10 mM Na2HPO4/NaH2PO4 (70%/30%), dried, sealed at the bottom and, after addition of 25 μl MicroScint20 (Packard Biosciences, order #6013621), sealed on the top. Membrane-bound ^35S-GTPγS is measured with a TopCount from Packard Biosciences.
# EC50 is the concentration of agonist inducing 50% of the maximal specific ^35S-GTPγS binding. Specific binding is determined by subtracting non-specific binding from maximal binding. Maximal binding is the amount of cpm bound to the Multiscreen plate in the presence of 10 μM of S1P. Non-specific binding is the amount of binding in the absence of an agonist in the assay.
# recombinant human S1P1 receptor, sequence (P21453 whole entry): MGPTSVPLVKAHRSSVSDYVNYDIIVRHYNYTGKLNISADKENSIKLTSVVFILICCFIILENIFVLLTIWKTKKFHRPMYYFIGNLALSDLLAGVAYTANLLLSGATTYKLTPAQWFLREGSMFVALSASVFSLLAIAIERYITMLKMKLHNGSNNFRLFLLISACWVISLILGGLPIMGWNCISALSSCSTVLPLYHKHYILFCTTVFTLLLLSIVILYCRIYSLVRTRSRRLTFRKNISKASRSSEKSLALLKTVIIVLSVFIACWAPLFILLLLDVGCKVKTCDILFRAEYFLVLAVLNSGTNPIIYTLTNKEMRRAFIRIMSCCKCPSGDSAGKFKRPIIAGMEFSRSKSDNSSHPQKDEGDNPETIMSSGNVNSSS
row,SMILES,EC50
1,"CCc1cc(-c2noc(-c3cc(C)c(CC(C)C)cn3)n2)cc(C)c1OCCNC(=O)CO [Example 51, N-(2-{2-Ethyl-4-[5-(5-isobutyl-4-methyl-pyridin-2-yl)-[1,2,4]oxadiazol-3-yl]-6-methyl-phenoxy}-ethyl)-2-hydroxy-acetamide]",8.8 nM
2,"CCc1cc(-c2noc(-c3cc(C)c(CC(C)C)cn3)n2)cc(C)c1OCCNCCC(=O)O [Example 50, 3-(2-{2-Ethyl-4-[5-(5-isobutyl-4-methyl-pyridin-2-yl)-[1,2,4]oxadiazol-3-yl]-6-methyl-phenoxy}-ethylamino)-propionic acid]",5.1 nM
3,"CCc1cc(-c2noc(-c3cc(OC)cc(C(CC)CC)n3)n2)cc(C)c1OC[C@@H](O)CNC(=O)CO [Example 69, N—[(S)-3-(2-ethyl-4-{5-[6-(1-ethyl-propyl)-4-methoxy-pyridin-2-yl]-[1,2,4]oxadiazol-3-yl}-6-methyl-phenoxy)-2-hydroxy-propyl]-2-hydroxy-acetamide]",3.1 nM
4,"CCc1cc(-c2noc(-c3cc(C)c(CC(C)C)cn3)n2)cc(C)c1OC[C@H](O)CO [Example 33, (R)-3-{2-ethyl-4-[5-(5-isobutyl-4-methyl-pyridin-2-yl)-[1,2,4]oxadiazol-3-yl]-6-methyl-phenoxy}-propane-1,2-diol]",7.2 nM
5,"CCC(CC)c1cc(OC)cc(-c2nc(-c3cc(C)c(OC[C@@H](O)CNC(=O)CO)c(OC)c3)no2)n1 [Example 72, N—[(S)-3-(4-{5-[6-(1-ethyl-propyl)-4-methoxy-pyridin-2-yl]-[1,2,4]oxadiazol-3-yl}-2-methoxy-6-methyl-phenoxy)-2-hydroxy-propyl]-2-hydroxy-acetamide]",8.8 nM
6,"CCc1cc(-c2noc(-c3cc(C)c(CC(C)C)cn3)n2)cc(C)c1OC[C@@H](O)CNCCO [Example 58, 1-{2-Ethyl-4-[5-(5-isobutyl-4-methyl-pyridin-2-yl)-[1,2,4]oxadiazol-3-yl]-6-methyl-phenoxy}-3-((2S)-2-hydroxy-ethylamino)-propan-2-ol]",11.2 nM
7,"CCc1cc(-c2nc(-c3cc(C)c(CC(C)C)cn3)no2)cc(C)c1OC[C@@H](O)CNC(=O)CO [Example 74, N-((2S)-3-{2-Ethyl-4-[3-(5-isobutyl-4-methyl-pyridin-2-yl)-[1,2,4]oxadiazol-5-yl]-6-methyl-phenoxy}-2-hydroxy-propyl)-2-hydroxy-acetamide]",9 nM
8,"CCc1cc(-c2noc(-c3cc(C)c(CC(C)C)cn3)n2)cc(C)c1OC[C@@H](O)CNS(=O)(=O)CC [Example 59, Ethanesulfonic acid ((2S)-3-{2-ethyl-4-[5-(5-isobutyl-4-methyl-pyridin-2-yl)-[1,2,4]oxadiazol-3-yl]-6-methyl-phenoxy}-2-hydroxy-propyl)-amide]",11.9 nM
9,COc1cc(CC(C)C)nc(-c2nc(-c3cc(C)c(OC[C@@H](O)CNC(=O)CO)c(C)c3)no2)c1 [Example 10],2.7 nM
10,"CCc1cc(-c2noc(-c3cc(C)c(CC(C)C)cn3)n2)cc(C)c1OC[C@@H](O)CNCCC(=O)O [Example 61, 3-((2S)-3-{2-Ethyl-4-[5-(5-isobutyl-4-methyl-pyridin-2-yl)-[1,2,4]oxadiazol-3-yl]-6-methyl-phenoxy}-2-hydroxy-propylamino)-propionic acid]",2.3 nM
11,"CCC(CC)c1cc(OC)cc(-c2nc(-c3cc(C)c(OC[C@@H](O)CNC(=O)CO)c(C)c3)no2)n1 [Example 70, N—[(S)-3-(4-{5-[6-(1-ethyl-propyl)-4-methoxy-pyridin-2-yl]-[1,2,4]oxadiazol-3-yl}-2,6-dimethyl-phenoxy)-2-hydroxy-propyl]-2-hydroxy-acetamide]",2.8 nM
12,"CCc1cc(-c2noc(-c3cc(C)c(CC(C)C)cn3)n2)cc(C)c1OC(CO)CO [Example 55, 2-{2-Ethyl-4-[5-(5-isobutyl-4-methyl-pyridin-2-yl)-[1,2,4]oxadiazol-3-yl]-6-methyl-phenoxy}-propane-1,3-diol]",4.7 nM
13,"CCc1cc(-c2noc(-c3cc(C)c(CC(C)C)cn3)n2)cc(C)c1OC[C@@H](O)CO [Example 34, (S)-3-{2-ethyl-4-[5-(5-isobutyl-4-methyl-pyridin-2-yl)-[1,2,4]oxadiazol-3-yl]-6-methyl-phenoxy}-propane-1,2-diol]",9.1 nM
14,"CCC(CC)c1cc(OC)cc(-c2nc(-c3cc(C)c(OC[C@@H](O)CO)c(Cl)c3)no2)n1 [Example 65, (S)-3-(2-chloro-4-{5-[6-(1-ethyl-propyl)-4-methoxy-pyridin-2-yl]-[1,2,4]oxadiazol-3-yl}-6-methyl-phenoxy)-propane-1,2-diol]",9.4 nM
15,"CCc1cc(-c2noc(-c3cc(C)cc(C(CC)CC)n3)n2)cc(C)c1OC[C@@H](O)CO [Example 62, (S)-3-(2-Ethyl-4-{5-[6-(1-ethyl-propyl)-4-methyl-pyridin-2-yl]-[1,2,4]oxadiazol-3-yl}-6-methyl-phenoxy)-propane-1,2-diol]",2.2 nM
16,"CCC(CC)c1cc(OC)cc(-c2nc(-c3cc(C)c(OC[C@@H](O)CNC(=O)CO)c(Cl)c3)no2)n1 [Example 71, N—[(S)-3-(2-chloro-4-{5-[6-(1-ethyl-propyl)-4-methoxy-pyridin-2-yl]-[1,2,4]oxadiazol-3-yl}-6-methyl-phenoxy)-2-hydroxy-propyl]-2-hydroxy-acetamide]",0.8 nM
17,"CCc1cc(-c2noc(-c3cc(C)c(CC(C)C)cn3)n2)cc(C)c1CCC(=O)NCCC(=O)O [Example 40, 3-(3-{2-Ethyl-4-[5-(5-isobutyl-4-methyl-pyridin-2-yl)-[1,2,4]oxadiazol-3-yl]-6-methyl-phenyl}-propionylamino)-propionic acid]",3.3 nM
18,"CCc1cc(-c2noc(-c3cc(OC)cc(CC(C)C)n3)n2)cc(C)c1OC[C@@H](O)CNC(=O)CO [Example 17, N—((S)-3-{2-ethyl-4-[5-(6-isobutyl-4-methoxy-pyridin-2-yl)-[1,2,4]oxadiazol-3-yl]-6-methyl-phenoxy}-2-hydroxy-propyl)-2-hydroxy-acetamide]",2.3 nM

# Same assay, conditions: 35S-GTPγS binding, membranes of CHO cells expressing recombinant human S1P1 receptor
row,SMILES,EC50
1,CCc1cc(-c2nnc(-c3cc(C)c(CC(C)C)cn3)o2)cc(C)c1OC[C@@H](O)CN [Example 43],> 10000 nM

# Tested on: circulating lymphocytes
# Assay: Assessment of in vivo efficacy: circulating lymphocytes after oral administration
# Set-up: species or system normotensive male Wistar rats
# Conditions: 3 h after administration; oral 10 mg/kg, male Wistar rats, compared to vehicle group
# Experimental: The efficacy of the compounds of Formula (I) is assessed by measuring the circulating lymphocytes after oral administration of 3 to 30 mg/kg of a compound of Formula (I) to normotensive male Wistar rats. The animals are housed in climate-controlled conditions with a 12 h-light/dark cycle, and have free access to normal rat chow and drinking water. Blood is collected before and 3, 6 and 24 h after drug administration. Full blood is subjected to hematology using Advia Hematology system (Bayer Diagnostics, Zürich, Switzerland).
# All data are presented as mean±SEM. Statistical analyses are performed by analysis of variance (ANOVA) using Statistica (StatSoft) and the Student-Newman-Keuls procedure for multiple comparisons. The null hypothesis is rejected when p<0.05.
# Lymphocyte counts 6 h after oral administration have been measured for 7 of the exemplified compounds (Table 2) and are in the range of −35% to −74% with an average of −64%.
row,SMILES,Lymphocyte counts
1,"CCc1cc(-c2noc(-c3cc(C)c(CC(C)C)cn3)n2)cc(C)c1OC(CO)CO [Example 55, 2-{2-Ethyl-4-[5-(5-isobutyl-4-methyl-pyridin-2-yl)-[1,2,4]oxadiazol-3-yl]-6-methyl-phenoxy}-propane-1,3-diol]",−65%*

# Same assay, conditions: 6 h after oral administration of 10 mg/kg to male Wistar rats, compared to vehicle group
row,SMILES,Lymphocyte counts
1,"CCc1cc(-c2noc(-c3cc(CC(C)C)cc(C)n3)n2)cc(C)c1OC[C@@H](O)CNC(=O)CO [Example 5, N—((S)-3-{2-Ethyl-4-[5-(4-isobutyl-6-methyl-pyridin-2-yl)-[1,2,4]oxadiazol-3-yl]-6-methyl-phenoxy}-2-hydroxy-propyl)-2-hydroxy-acetamide]",−67%
2,"CCc1cc(-c2noc(-c3cc(C)c(CC(C)C)cn3)n2)cc(C)c1OC[C@@H](O)CNC(=O)CO [Example 36, N—((S)-3-{2-ethyl-4-[5-(5-isobutyl-4-methyl-pyridin-2-yl)-[1,2,4]oxadiazol-3-yl]-6-methyl-phenoxy}-2-hydroxy-propyl)-2-hydroxy-acetamide]",−74%
3,"CCc1cc(-c2noc(-c3cc(C)cc(CC(C)C)n3)n2)cc(C)c1OC[C@@H](O)CNC(=O)CO [Example 1, N—((S)-3-{2-Ethyl-4-[5-(6-isobutyl-4-methyl-pyridin-2-yl)-[1,2,4]oxadiazol-3-yl]-6-methyl-phenoxy}-2-hydroxy-propyl)-2-hydroxy-acetamide]",−74%
4,"CCc1cc(-c2noc(-c3cc(C)c(CC(C)C)cn3)n2)cc(C)c1OC[C@@H](O)CO [Example 34, (S)-3-{2-ethyl-4-[5-(5-isobutyl-4-methyl-pyridin-2-yl)-[1,2,4]oxadiazol-3-yl]-6-methyl-phenoxy}-propane-1,2-diol]",−70%
5,"CCc1cc(-c2noc(-c3cc(C)c(CC(C)C)cn3)n2)cc(C)c1CCC(=O)NCCC(=O)O [Example 40, 3-(3-{2-Ethyl-4-[5-(5-isobutyl-4-methyl-pyridin-2-yl)-[1,2,4]oxadiazol-3-yl]-6-methyl-phenyl}-propionylamino)-propionic acid]",−35%
6,"CCc1cc(-c2noc(-c3cc(OC)cc(CC(C)C)n3)n2)cc(C)c1OC[C@@H](O)CNC(=O)CO [Example 17, N—((S)-3-{2-ethyl-4-[5-(6-isobutyl-4-methoxy-pyridin-2-yl)-[1,2,4]oxadiazol-3-yl]-6-methyl-phenoxy}-2-hydroxy-propyl)-2-hydroxy-acetamide]",−66%

# Source: patent publication US8575200B2, “Pyridin-2-yl derivatives as immunomodulating agents” (Actelion Pharmaceuticals Ltd, priority 2008, dated 2013)
